What was measured:
Assay type in all cases: cell-based
ID1 gene = experiment: real-time quantitative RT-PCR, ID1 gene, human umbilical vein endothelial cells; conditions: 4 to 8 hours
Method: (§2) Human umbilical vein endothelial cells cultured in HamF12K medium were treated with 40 μg/ml rifampicin or 1.0×10^−8 M endostatin, and maintained at 37° C. for 4 to 8 hours. […] After establishing the quantification condition, the amount of mRNA for these genes were quantified. […] Human umbilical vein endothelial cells cultured in HamF12K medium were treated with 20 μM salubrinal, and maintained at 37° C. for 4 to 8 hours. Subsequently, total cell extracts were subjected to real-time quantitative RT-PCR using TaqMan probe for ID1 gene, ID3 gene, integrinαv gene, Flt gene and Ephrin A1 gene, respectively. After establishing the quantification condition, the amount of mRNA for these genes were quantified.

integrinαv gene = experiment: real-time quantitative RT-PCR, integrinαv gene, human umbilical vein endothelial cells; conditions: 4 to 8 hours
Method: as §2

Flt gene = experiment: real-time quantitative RT-PCR, Flt gene, human umbilical vein endothelial cells; conditions: 4 to 8 hours
Method: as §2

ID3 gene = experiment: real-time quantitative RT-PCR, ID3 gene, human umbilical vein endothelial cells; conditions: 4 to 8 hours
Method: as §2

Ephrin A1 gene = experiment: real-time quantitative RT-PCR, Ephrin A1 gene, human umbilical vein endothelial cells; conditions: 4 to 8 hours
PKR [1] = experiment: western blotting with phospho-specific anti-PKR antibody, aorta endothelial cells (rAEC); conditions: rat aorta derived primary endothelial cells, 4 or 8 hours
Method: Similarly, […] aorta endothelial cells (rAEC) were treated respectively with salubrinal (20 μM), rifampicin (40 μg/ml), or endostatin (1.0×10^−9 M); PKR inhibitor A (2-aminopurine, 10 mM) followed by endostatin (1.0×10^−9 M); PKR inhibitor B (8-(imidazole-4-ylmethylene)-6H-azolidino [5,4-g]benzodiazole-7-one, 0.3 μM) followed by rifampicin (40 μg/ml); and PKR inhibitor B (same as above, 0.3 μM) followed by endostatin (1.0×10^−9 M); and maintained at 37° C. for 4 or 8 hours. Total cell extracts from respective samples were subjected to western blotting analysis using phospho-specific anti-PKR antibody to determine the extent of PKR phosphorylation.

PKR [2] = experiment: fluorescent antibody staining with phospho-specific anti-PKR antibody, human umbilical vein endothelial cells
Method: Human umbilical endothelial cells cultured in HamF12K were treated with 40 μg/ml of rifampicin or 1.0×10^−9 M of endostatin, and maintained at 37° C. for 30 minutes. Cells were then stained using phospho-specific anti-PKR antibody as the primary antibody, and the presence of phosphorylated PKR was examined in the cells.
Similar experiments were also performed in human umbilical vein endothelial cells pre-treated with structural analog of PKR inhibitor (PKR negative) and then treated with 40 μg/ml rifampicin, as well as in human umbilical vein endothelial cells pre-treated with PKR inhibitor B (8-(imidazole-4-ylmethylene)-6H-azolidino [5,4-g]benzodiazole-7-one, 0.3 μM) and then treated with 40 μg/ml rifampicin or 1.0×10^−9 M endostatin, respectively.

PKR mRNA = experiment: real-time quantitative RT-PCR, PKR mRNA, human umbilical vein endothelial cells; conditions: 40 μg/ml rifampicin or 1.0×10^−8 M endostatin, 4 to 8 hours
Method: Human umbilical vein endothelial cells cultured in HamF12K medium were treated with 40 μg/ml rifampicin or 1.0×10^−8 M endostatin, and maintained at 37° C. for 4 to 8 hours. Subsequently, total cell extracts were subjected to real-time quantitative RT-PCR using TaqMan probe for PKR mRNA, and the amount of PKR mRNA was quantified. Similar processes were repeated for human umbilical vein endothelial cell samples that were transfected with PKR siRNA prior to rifampicin or endostatin treatment.

PKR [3] = experiment: western blotting with phospho-specific anti-PKR antibody, human retina vessel endothelial cells (hREC); conditions: 40 μg/ml rifampicin or 1.0×10^−9 M endostatin, 10 to 240 minutes
Method: (§1) Human retina vessel endothelial cells (hREC) or human umbilical vein endothelial cells (hUVEC) cultured in HamF12K medium supplemented with 10% bovine fetal serum and growth factors were treated with either 40 μg/ml rifampicin or 1.0×10^−9 M endostatin, and maintained at 37° C. for 10 to 240 minutes. Total cell extracts from the maintained cells were then subjected to western blotting using phospho-specific anti-PKR antibody to examine the time course of PKR phosphorylation.

PKR [4] = experiment: western blotting with phospho-specific anti-PKR antibody, human umbilical vein endothelial cells (hUVEC); conditions: 40 μg/ml rifampicin or 1.0×10^−9 M endostatin, 10 to 240 minutes
Method: as §1

[5] = hUVEC transfected with PKR siRNA prior to 40 μg/ml rifampicin or 1.0×10^−8 M endostatin
[6] = hUVEC, 40 μg/ml rifampicin or 1.0×10^−8 M endostatin

Molecule: O=C(/C=C/c1ccccc1)NC(NC(=S)Nc1cccc2cccnc12)C(Cl)(Cl)Cl (stereo not drawn) [salubrinal, reference compound]
- expression level of mRNA for ID1 gene (ID1 gene; hUVEC, 20 μM salubrinal): decrease
- expression level of mRNA for integrinαv gene (integrinαv gene; hUVEC, 20 μM salubrinal): decrease
- expression level of mRNA for Flt gene (Flt gene; hUVEC, 20 μM salubrinal): decrease
- expression level of mRNA for ID3 gene (ID3 gene; hUVEC, 20 μM salubrinal): decrease
- expression level of mRNA for Ephrin A1 gene (Ephrin A1 gene; hUVEC, 20 μM salubrinal): decrease

Molecule: endostatin
- decrease of expression of ID1 gene in PKR siRNA treated samples (ID1 gene; [5]): did not occur
- expression level of ID1 gene (ID1 gene; [6]): decreased
- decrease of expression of integrinαv gene in PKR siRNA treated samples (integrinαv gene; [5]): did not occur
- expression level of integrinαv gene (integrinαv gene; [6]): decreased
- phosphorylation of PKR in cells pre-treated with specific PKR inhibitor (PKR [1]; PKR inhibitor B 0.3 μM followed by rifampicin 40 μg/ml or endostatin 1.0×10^−9 M): did not induce PKR phosphorylation
- phosphorylation of PKR (PKR [1]; rifampicin 40 μg/ml or endostatin 1.0×10^−9 M): induced phosphorylation of PKR
- decrease of expression of Flt gene in PKR siRNA treated samples (Flt gene; [5]): did not occur
- expression level of Flt gene (Flt gene; [6]): decreased
- PKR phosphorylation in the cell (fluorescent antibody) (PKR [2]; 40 μg/ml rifampicin or 1.0×10^−9 M endostatin, 30 minutes): induced enhancement of PKR phosphorylation
- PKR phosphorylation in cells pre-treated with specific PKR inhibitor (fluorescent antibody) (PKR [2]; PKR inhibitor B 0.3 μM, then 40 μg/ml rifampicin or 1.0×10^−9 M endostatin): did not occur
- PKR expression (PKR mRNA) (PKR mRNA): increased
- decrease of expression of ID3 gene in PKR siRNA treated samples (ID3 gene; [5]): did not occur
- expression level of ID3 gene (ID3 gene; [6]): decreased
- phosphorylation of PKR (PKR [3]): enhanced
- phosphorylation of PKR (PKR [4]): enhanced
- decrease of expression of Ephrin A1 gene in PKR siRNA treated samples (Ephrin A1 gene; [5]): did not occur
- expression level of Ephrin A1 gene (Ephrin A1 gene; [6]): decreased

Molecule: O=C1Nc2ccc3ncsc3c2C1=Cc1cnc[nH]1 [PKR inhibitor B, reference compound]
- effect of PKR inhibitor pre-treatment on rifampicin or endostatin induced PKR phosphorylation (PKR [1]; inhibitor 0.3 μM): did not induce PKR phosphorylation
- effect of PKR inhibitor pre-treatment on PKR phosphorylation after rifampicin or endostatin treatment (fluorescent antibody) (PKR [2]; inhibitor 0.3 μM): did not occur

From patent US20110151485A1, “METHOD FOR SCREENING FOR ANTIANGIOGENIC AGENT, AND METHOD FOR SCREENING FOR ANTIANGIOGENIC SIGNAL GENE” (National University Corporation Tokyo Medical and Dental …, priority 2008, published 2011)
